Patent US8247211B2, “Glycopeptide antibiotics” (American Cyanamid Company, priority 2001, dated 2012)

Key:
Test in all cases: In vitro antibacterial evaluation: minimum inhibitory concentration (MIC), broth dilution method
Format in all cases: cell-based
Streptococcus sp. = test system: Streptococcus sp.
Experimental: (§1) The minimum inhibitory concentration (MIC), the lowest concentration of the antibiotic which inhibits growth of the test organism, is determined by the broth dilution method using Muller-Hinton II […] (Baltimore Biological Laboratories) following the recommendations of the National Committee for Clinical Laboratory Standards [Methods for dilution antimicrobial susceptibility tests for bacteria that grow aerobically, approved standard M7-A2, National Committee for Clinical Laboratory Standards, Villanova, Pa].
(§2) An inoculum level of 5×10^5 CFU/mL, and a range of antibiotic concentrations (64-0.06 μg/mL) is used. […] The test organisms include a spectrum of Gram-positive bacteria comprised of Staphylococcus sp., Streptococcus sp. and Enterococcus sp. These organisms include recent clinical isolates that are resistant to methicillin, penicillin and/or vancomycin.

Staphylococcus sp. = details: broth dilution, 18 hours at 35° C.
Experimental: as §1, §2

Enterococcus sp. = test system: Enterococcus sp.
Experimental: as §1, §2

Escherichia coli = test system: Escherichia coli
Experimental: as §1, §2

COc1cccc(C2OC3C(OC4C(CO)OC(Oc5ccc(CC6NC(=O)C(C(C)c7ccccc7)NC(=O)CNC(=O)C(CO)NC(=O)C(C(O)C7CNC(=N)N7C7OC(CO)C(O)C(O)C7O)NC(=O)C(C(O)C7CNC(=N)N7)NC6=O)cc5)C(O)C4O)OC(CO)C(O)C3O2)c1 (single isomer, unassigned) [Example 137a, Cyclo[glycyl-β-methylphenylalanyl-O-[4-O-[2,3-O-(3-methoxybenzylidene)hexopyranosyl]-hexopyranosyl]tyrosyl-3-(2-iminoimidazolidin-4-yl)seryl-3-(3-hexopyranosyl-2-iminoimidazolidin-4-yl)serylseryl]]
>64 µg/mL: MIC Enterococcus faecalis (ATCC 29212) (Enterococcus sp.; strain ATCC 29212) | MIC Enterococcus faecalis (GC 2242) (Enterococcus sp.; strain GC 2242) | MIC Enterococcus faecium (GC 2243) (Enterococcus sp.; strain GC 2243) | MIC Enterococcus faecalis (GC 2691) (Enterococcus sp.; strain GC 2691) | MIC Enterococcus faecalis (GC 3059) (Enterococcus sp.; strain GC 3059) | MIC Enterococcus faecalis (GC 4552) (Enterococcus sp.; strain GC 4552) | MIC Enterococcus faecalis (GC 4553) (Enterococcus sp.; strain GC 4553) | MIC Enterococcus faecalis (GC 4554) (Enterococcus sp.; strain GC 4554) | MIC Enterococcus faecium (GC 4556) (Enterococcus sp.; strain GC 4556) | MIC Enterococcus faecalis (GC 6189) (Enterococcus sp.; strain GC 6189) | MIC Escherichia coli (ATCC 25922) (Escherichia coli; strain ATCC 25922) | MIC Escherichia coli (GC 4559) (Escherichia coli; strain GC 4559)
32 µg/mL: MIC Staphylococcus aureus (ATCC 29213) (Staphylococcus sp.; 5×10^5 CFU/mL) | MIC Staphylococcus aureus (GC 1131) (Staphylococcus sp.; 5×10^5 CFU/mL) | MIC Staphylococcus aureus (GC 3051) (Staphylococcus sp.; 5×10^5 CFU/mL) | MIC Staphylococcus aureus (GC 3053) (Staphylococcus sp.; 5×10^5 CFU/mL) | MIC Staphylococcus aureus (GC 4542) (Staphylococcus sp.; 5×10^5 CFU/mL) | MIC Staphylococcus aureus (GC 4544) (Staphylococcus sp.; 5×10^5 CFU/mL) | MIC Staphylococcus aureus (GC 4545) (Staphylococcus sp.; 5×10^5 CFU/mL) | MIC Staphylococcus aureus (ATCC 29213) (Staphylococcus sp.; strain ATCC 29213) | MIC Staphylococcus aureus (GC 1131) (Staphylococcus sp.; strain GC 1131) | MIC Staphylococcus aureus (GC 3051) (Staphylococcus sp.; strain GC 3051) | MIC Staphylococcus aureus (GC 3053) (Staphylococcus sp.; strain GC 3053) | MIC Staphylococcus aureus (GC 4542) (Staphylococcus sp.; strain GC 4542) | MIC Staphylococcus aureus (GC 4544) (Staphylococcus sp.; strain GC 4544) | MIC Staphylococcus aureus (GC 4545) (Staphylococcus sp.; strain GC 4545)
8 µg/mL: MIC Streptococcus pneumoniae (ATCC 6301) (Streptococcus sp.; strain ATCC 6301) | MIC Coagulase Negative Staphylococcus (GC 4548) (Staphylococcus sp.; 5×10^5 CFU/mL) | MIC Coagulase Negative Staphylococcus (GC 4549) (Staphylococcus sp.; 5×10^5 CFU/mL) | MIC Coagulase Negative Staphylococcus (GC 6257) (Staphylococcus sp.; 5×10^5 CFU/mL) | MIC Coagulase Negative Staphylococcus (GC 4548) (Staphylococcus sp.; strain GC 4548) | MIC Coagulase Negative Staphylococcus (GC 4549) (Staphylococcus sp.; strain GC 4549) | MIC Coagulase Negative Staphylococcus (GC 6257) (Staphylococcus sp.; strain GC 6257) | MIC Escherichi coli (GC 4560) (Escherichia coli; strain GC 4560)
16 µg/mL: MIC Streptococcus pyogenes (GC 4563) (Streptococcus sp.; strain GC 4563) | MIC Streptococcus agalactiae (GC 4564) (Streptococcus sp.; strain GC 4564) | MIC Streptococcus pneumoniae (GC 4565) (Streptococcus sp.; strain GC 4565) | MIC Coagulase Negative Staphylococcus (GC 4547) (Staphylococcus sp.; 5×10^5 CFU/mL) | MIC Coagulase Negative Staphylococcus (GC 4551) (Staphylococcus sp.; 5×10^5 CFU/mL) | MIC Staphylococcus aureus (GC 4541) (Staphylococcus sp.; 5×10^5 CFU/mL) | MIC Staphylococcus aureus-SMITH (GC 4543) (Staphylococcus sp.; 5×10^5 CFU/mL) | MIC Staphylococcus haemolyticus (GC 4546) (Staphylococcus sp.; 5×10^5 CFU/mL) | MIC Staphylococcus aureus (GC 4541) (Staphylococcus sp.; strain GC 4541) | MIC Staphylococcus aureus-SMITH (GC 4543) (Staphylococcus sp.; strain GC 4543) | MIC Staphylococcus haemolyticus (GC 4546) (Staphylococcus sp.; strain GC 4546) | MIC Coagulase Negative Staphylococcus (GC 4547) (Staphylococcus sp.; strain GC 4547) | MIC Coagulase Negative Staphylococcus (GC 4551) (Staphylococcus sp.; strain GC 4551) | MIC Enterococcus faecium (GC 4557) (Enterococcus sp.; strain GC 4557)
4 µg/mL: MIC Streptococcus pneumoniae (GC 1894) (Streptococcus sp.; strain GC 1894)
64 µg/mL: MIC Enterococcus avium (GC 4558) (Enterococcus sp.; strain GC 4558)
